Experimental data: patent US8367695B2, “Condensed tetrahydroquinoline derivative and use thereof for medical purposes” (Mitsubishi Tanabe Pharma Corporation, priority 2007, dated 2013)

target: T1, human recombinant progesterone receptor-B (PRB) (Homo sapiens, UniProt P06401); experiment: Radioactive ligand binding test, PRB cytosol, [3H]-Prog; details: not given
T1 construct: purchased Invitrogen (Carlsbad, Calif.)
T1 sequence (P06401 1-933): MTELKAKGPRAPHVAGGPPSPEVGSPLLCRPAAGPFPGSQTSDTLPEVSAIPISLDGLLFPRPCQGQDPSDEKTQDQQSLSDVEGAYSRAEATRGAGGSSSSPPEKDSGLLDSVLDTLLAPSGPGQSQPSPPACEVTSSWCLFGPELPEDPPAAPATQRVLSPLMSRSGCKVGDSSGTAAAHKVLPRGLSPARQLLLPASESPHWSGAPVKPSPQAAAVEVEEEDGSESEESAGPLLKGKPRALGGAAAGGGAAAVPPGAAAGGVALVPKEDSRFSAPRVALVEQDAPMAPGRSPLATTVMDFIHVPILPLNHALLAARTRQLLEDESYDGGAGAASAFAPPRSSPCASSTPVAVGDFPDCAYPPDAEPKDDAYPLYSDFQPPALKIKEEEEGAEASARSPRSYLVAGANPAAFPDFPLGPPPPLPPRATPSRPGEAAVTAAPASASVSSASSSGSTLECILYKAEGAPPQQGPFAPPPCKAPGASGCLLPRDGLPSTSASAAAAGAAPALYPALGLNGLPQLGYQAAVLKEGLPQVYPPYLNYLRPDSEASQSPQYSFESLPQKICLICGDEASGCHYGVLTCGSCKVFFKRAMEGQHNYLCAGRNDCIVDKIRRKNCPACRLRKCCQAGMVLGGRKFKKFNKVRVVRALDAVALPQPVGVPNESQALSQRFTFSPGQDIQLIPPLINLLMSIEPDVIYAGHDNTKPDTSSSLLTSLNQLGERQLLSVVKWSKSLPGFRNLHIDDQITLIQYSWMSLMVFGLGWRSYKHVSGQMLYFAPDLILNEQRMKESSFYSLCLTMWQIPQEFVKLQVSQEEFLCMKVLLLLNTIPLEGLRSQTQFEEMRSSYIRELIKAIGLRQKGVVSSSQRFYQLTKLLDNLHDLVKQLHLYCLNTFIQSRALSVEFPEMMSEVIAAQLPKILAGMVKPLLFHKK
Text: Radioactive Ligand Binding Test Using Cytosols of Human Glucocorticoids Receptor, Progesterone Receptor and Mineralocorticoid Receptor
The procedures described in Neuroimmunomodulation (1994, 1, p. 66-73) and Invest. Opthalmol. Vis. Sci. (1996, 37, p. 805-813) were modified and used. In brief, cytosol preparations of human recombinant glucocorticoids receptor (GR) and human recombinant progesterone receptor-B (PRB) were purchased from Invitrogen (Carlsbad, Calif.), and a cytosol preparation of human recombinant mineralocorticoid receptor (MR) was prepared by our company (Yokohama, JP). MR cDNA was cloned into a baculovirus expression vector and expressed in insect cell Sf9. The procedures described in J. Biol. Chem. (1991, 266, p. 18072-18081), Proc. Natl. Acad. Sci. USA (1991, 88, p. 10681-10685) and Bac-to-Bac (registered trade mark) Baculovirus Expression Systems technical manual (Invitrogen) were partly modified and used as the procedures for MR gene cloning up to preparation of recombinant receptor cytosol. [^3H]-Dexamethasone (Dex, specific activity 91.0 Ci/mmol) was purchased from GE Healthcare (Buckinghamshire, UK), and [^3H]-progesterone (Prog, specific activity 103 Ci/mmol) and [3H]-aldosterone (Ald, specific activity 87.9 Ci/mmol) were each purchased from PerkinElmer (Boston, Mass.). Polypropylene round-bottomed 96 well plate was obtained from ABgene (Epsom, UK). Dimethyl Sulfoxide (DMSO) and hydrochloric acid were obtained from Kanto Chemical (TOKYO, JP). Trizma Base (Tris), Bovine Serum Albumin (BSA) and Sodium tungstate dihydrate were obtained from Sigma Chemicals (St. Louis, Mo.). Dithiothreitol (DTT) and Dextran 70 were obtained from GE Healthcare (Buckinghamshire, UK). Glycerol was obtained from Junsei Chemical (TOKYO, JP). Norit® “SX-II” was obtained from Wako Pure Chemical Industries, Ltd. (Osaka, JP). MeltiLex™, A, Printed Filtermat A and Sample Bag were obtained from PerkinElmer (Boston, Mass.).
As a buffer for GR binding assay, 25 mM Tris-HCl (4° C., pH 7.4)/1 mM EDTA·2Na/1 mM DTT/0.1% BSA was prepared and used. As buffers for PRB and MR binding assay, 10 mM Tris-HCl (4° C., pH 7.4)/1 mM DTT/0.1% BSA/10% glycerol and 20 mM Tris-HCl (4° C., pH 7.4)/1 mM EDTA·2Na/10% glycerol/20 mM sodium tungstate were respectively prepared and used. As dextran-coated charcoal (DCC) for B/F separation, 0.75% Dextran 70/0.75% Norit® SX-II/10 mM Tris-HCl (4° C., pH 7.4) was prepared and used.
Compound storage solutions (5-20 mM) were prepared using DMSO. The storage solutions were diluted with DMSO to 0.1 mM (for GR) and 0.3 mM (for PRB and MR), and further diluted 20-fold with distilled water to give solutions. Then, the preparations were diluted to each concentration with 5% DMSO solution. 1% DMSO was present at the time of the binding assay.
In the case of PRB binding assay, [^3H]-Prog (about 5 nM), PRB cytosol (concentration of function receptor: about 4 pmol/mL), a test compound and a binding buffer were mixed in a total volume of 50 μL, and the mixture was stood at 4° C. for 30 min or longer. A specific binding was defined to be the difference in the [^3H]-Prog binding between the presence and the absence of 1 μM unlabeled Prog.
After the reaction, 50 μL of DCC was added to each well and blended. Thereafter, the mixture was stood at 4° C. for 10 min. The plate was applied to high-speed cooling centrifuge under the conditions of 4° C., 2000 rpm, 5 min to perform B/F separation. A given amount of the supernatant was recovered, which was spotted on Filtermat A of 96 well format (PerkinElmer) and rapidly dried at a high temperature. Then, solid scintillator MeltiLex A (PerkinElmer) was melted on Filtermat A. The mixture was placed in a Sample Bag (PerkinElmer), and the level of radioactivity was measured by plate reader 1450 Micro Beta TRILUX (PerkinElmer).
Measurement of Inhibition Constant (Ki)

SMILES | Ki [nM]
CC1(C)Nc2c(cc(-c3cccc4nncn34)c3c2CCC3)C(C)(C)C1=O [Example 17, 2,2,4,4-tetramethyl-6-([1,2,4]triazolo[4,3-a]pyridin-5-yl)-2,3,4,7,8,9-hexahydro-1H-cyclopenta[h]quinolin-3-one] | > 1250
C=CCC1(C)C(=O)C(C)(C)Nc2c1cc(-c1cccc3cc[nH]c13)c1c2OCO1 (stereo not drawn) [Example 78, 6-allyl-4-(1H-indol-7-yl)-6,8,8-trimethyl-6,7,8,9-tetrahydro-[1,3]dioxolo[4,5-h]quinolin-7-one] | > 1250

same assay, conditions: [3H]-Prog about 5 nM, PRB cytosol, 4° C.; Cheng-Prusoff, Kd about 3.5 nM; read-out: PR (Ki: nM)

SMILES | Ki [nM]
Cc1noc(C)c1-c1cc2c(c3c1CCC3)NC(C)(C)C(=O)C2(C)C [Example 2, 6-(3,5-dimethylisoxazol-4-yl)-2,2,4,4-tetramethyl-2,3,4,7,8,9-hexahydro-1H-cyclopenta[h]quinolin-3-one] | > 1250
Cc1nnn(C)c1-c1cc2c(c3c1CCC3)NC(C)(C)C(=O)C2(C)C [Example 4, 6-(3,5-dimethyl-3H-[1,2,3]triazol-4-yl)-2,2,4,4-tetramethyl-2,3,4,7,8,9-hexahydro-1H-cyclopenta[h]quinolin-3-one] | > 1250
CC1(C)Nc2c(cc(-c3ccnc4cc[nH]c34)c3c2CCC3)C(C)(C)C1=O [Example 13, 2,2,4,4-tetramethyl-6-(1H-pyrrolo[3,2-b]pyridin-7-yl)-2,3,4,7,8,9-hexahydro-1H-cyclopenta[h]quinolin-3-one] | > 1250
CC1(C)Nc2c(cc(-c3cccc4nccn34)c3c2CCC3)C(C)(C)C1=O [Example 14, 6-(imidazo[1,2-a]pyridin-5-yl)-2,2,4,4-tetramethyl-2,3,4,7,8,9-hexahydro-1H-cyclopenta[h]quinolin-3-one] | > 1250
CC1(C)Nc2c(cc(-c3cccc4ncccc34)c3c2CCC3)C(C)(C)C1=O [Example 20, 2,2,4,4-tetramethyl-6-(quinolin-5-yl)-2,3,4,7,8,9-hexahydro-1H-cyclopenta[h]quinolin-3-one] | > 1250
CC1(C)Nc2c(cc(-c3ccnc4ncccc34)c3c2CCC3)C(C)(C)C1=O [Example 21, 2,2,4,4-tetramethyl-6-([1,8]naphthyridin-4-yl)-2,3,4,7,8,9-hexahydro-1H-cyclopenta[h]quinolin-3-one] | > 1250
C=C1C(C)(C)Nc2c(cc(-c3c(C)ncn3C)c3c2CCC3)C1(C)C [Example 29, 6-(3,5-dimethyl-3H-imidazol-4-yl)-2,2,4,4-tetramethyl-3-methylene-2,3,4,7,8,9-hexahydro-1H-cyclopenta[h]quinoline] | > 1250
C=CCC1(C)C(=O)C(C)(C)Nc2c1cc(-c1ccc(O)cc1C)c1c2CCC1 (stereo not drawn) [Example 50, 4-allyl-6-(4-hydroxy-2-methylphenyl)-2,2,4-trimethyl-2,3,4,7,8,9-hexahydro-1H-cyclopenta[h]quinolin-3-one] | > 1250
C=CCC1(C)C(=O)C(C)(C)Nc2c1cc(-c1c(C)noc1C)c1c2CCC1 (stereo not drawn) [Example 51, 4-allyl-6-(3,5-dimethylisoxazol-4-yl)-2,2,4-trimethyl-2,3,4,7,8,9-hexahydro-1H-cyclopenta[h]quinolin-3-one] | > 1250
C=CCC1(C)C(=O)C(C)(C)Nc2c1cc(-c1cccc3nccn13)c1c2CCC1 (stereo not drawn) [Example 57, 4-allyl-6-(imidazo[1,2-a]pyridin-5-yl)-2,2,4-trimethyl-2,3,4,7,8,9-hexahydro-1H-cyclopenta[h]quinolin-3-one] | > 1250
CCC1(C)C(=O)C(C)(C)Nc2c1cc(-c1cccc3nccn13)c1c2CCC1 (stereo not drawn) [Example 58, 4-ethyl-6-(imidazo[1,2-s]pyridin-5-yl)-2,2,4-trimethyl-2,3,4,7,8,9-hexahydro-1H-cyclopenta[h]quinolin-3-one] | 1010
CC#CCC1(C)C(=O)C(C)(C)Nc2c1cc(-c1cccc3nccn13)c1c2CCC1 (stereo not drawn) [Example 63, 4-(2-butynyl)-6-(imidazo[1,2-a]pyridin-5-yl)-2,2,4-trimethyl-2,3,4,7,8,9-hexahydro-1H-cyclopenta[h]quinolin-3-one] | > 1250
Cc1noc(C)c1-c1cc2c(c3c1OCO3)NC(C)(C)C(=O)C2(C)C [Example 69, 4-(3,5-dimethylisoxazol-4-yl)-6,6,8,8-tetramethyl-6,7,8,9-tetrahydro-[1,3]dioxolo[4,5-h]quinolin-7-one] | > 1250
CC1(C)Nc2c(cc(-c3cccc4nccn34)c3c2OCO3)C(C)(C)C1=O [Example 71, 4-(imidazo[1,2-a]pyridin-5-yl)-6,6,8,8-tetramethyl-6,7,8,9-tetrahydro-[1,3]dioxolo[4,5-h]quinolin-7-one] | > 1250
CC1(C)Nc2c(cc(-c3cccc4ncccc34)c3c2OCO3)C(C)(C)C1=O [Example 72, 6,6,8,8-tetramethyl-4-(quinolin-5-yl)-6,7,8,9-tetrahydro-[1,3]dioxolo[4,5-h]quinolin-7-one] | > 1250
CC1(C)Nc2c(cc(-c3cccc4nccn34)c3c2OC(F)(F)O3)C(C)(C)C1=O [Example 82, 2,2-difluoro-4-(imidazo[1,2-a]pyridin-5-yl)-6,6,8,8-tetramethyl-6,7,8,9-tetrahydro-[1,3]dioxolo[4,5-h]quinolin-7-one] | > 1250
Cc1noc(C)c1-c1cc2c(c3c1OCC3)NC(C)(C)C(=O)C2(C)C [Example 84, 6-(3,5-dimethylisoxazol-4-yl)-2,2,4,4-tetramethyl-1,2,3,4,8,9-hexahydro-furo[2,3-h]quinolin-3-one] | > 1250
CC1(C)Nc2c(cc(-c3cccc4nccn34)c3c2CCO3)C(C)(C)C1=O [Example 88, 6-(imidazo[1,2-a]pyridin-5-yl)-2,2,4,4-tetramethyl-1,2,3,4,8,9-hexahydro-furo[2,3-h]quinolin-3-one] | > 1250
CC1(C)Nc2c(cc(-c3ccnc4ncccc34)c3c2CCO3)C(C)(C)C1=O [Example 92, 2,2,4,4-tetramethyl-6-([1,8]naphthyridin-4-yl)-1,2,3,4,8,9-hexahydro-furo[2,3-h]quinolin-3-one] | > 1250
